According to publication PMC6114901, “An automated screening method for detecting compounds with goitrogenic activity using transgenic zebrafish embryos” (PLoS ONE, 2018):
Where two headings read alike, the source gives them in different places.

How the values were obtained:
[1] = ref chemspider (http://www.chemspider.com); cited from earlier work
zebrafish embryos [2] = settings: read-out: LC50 (48–120 hpf); mortality; ref Fetter et al. [22]; cited from earlier work
[3] = test system: thyroid hormone levels (T4); settings: cited from earlier work; for EC50: read-out: EC50 T4 reduction, reduction of thyroid hormone levels (immunostaining)
[4] = test system: thyroglobulin (tg:mCherry reporter gene); assay: animal or person; settings: for EC50: Danio rerio, read-out: EC50 (tg:mCherry induction)
Experimental: In order to avoid interference of test chemicals with early thyroid gland development, zebrafish embryos were cultured in exposure medium until 48 hours post fertilization (hpf). Subsequently, they were exposed to seven known thyroid endocrine disrupters for 3 days (48 to 120 hpf). The non-goitrogenic compound 3,4-dichloroaniline, that is used as reference compound in the zebrafish acute embryo toxicity test was used as negative control. […] No solvents were used. […] Five concentrations and one control were tested per compound and replicate. In the second replicate the range of concentration was adjusted to improve fitting of concentration-response curves. […] Given the lack of appropriate spectral properties stability of exposure concentrations was not analysed for potassium perchlorate. Embryos were kept in the incubator at 26°C and a 14:10 hours light:dark cycle. The exposure was conducted in crystallisation dishes covered with watchmaker glasses with 30 embryos in 30 ml exposure medium (for exposure medium refer to [26]).
Embryos were positioned ventrally toward the microscope objective. Per embryo a bright field image, an autofocus fluorescence image and a Z-stack of 9 images were obtained. The Z-stack was required in case of autofocus failure and manual selection of the focal plane. Fluorescence images were obtained with 400 ms of fluorescent light exposure at maximal light intensity and a gain of 1. […] However, care was taken, that at least 10 images per concentration and replicates were assessed. To avoid a time bias during the analysis the sequence of wells for analysis was arranged in order to obtain a uniform distribution over the entire period of analysis.
The images were analysed using a KNIME workflow (Version 3.3.3., [29]) with the extension “KNIME image processing”. In brief, images were loaded into the workflow and the background was removed automatically using the “rolling ball” procedure of the image J plugin (rolling ball size set to 50 pixels). Subsequently the area containing the thyroid gland was manually selected by drawing a rectangle around the appropriate region using the interactive annotation node. […] If possible the autofocus images were used. In case that the thyroid gland was out of focus due to the presence of autofluorescing pigment cells, an appropriate image from the Z-stack was selected. All subsequent steps were conducted without any user interaction. […] Finally the sum of pixel (reflecting area of the thyroid gland and intensity of fluorescence) was calculated for the labeled area and used as a proxy of fluorescence intensity (see Fig 1 for an overview of the workflow). For each replicate the sum was of pixels was normalized by setting controls to the value of one. For data of individual embryos see S4 Table. The KNIME workflow used for image analysis is provided as supplement file (S1 Workflow).
To characterize the potency of the investigated goitrogenic compounds, we calculated EC50 values of tg:mcherry fluorescence using the pixel sum obtained from image analysis. For each replicate the fluorescence intensity was normalized by dividing the mean fluorescence intensity of each concentration with the mean control fluorescence intensity. Concentration-response curves of tgmcherry fluorescence were fitted to the data using the Hill-slope equation (Eq 1) and used to estimate EC50 values.
The parameter Min was set to 1 and the slope (p) and the maximum fluorescence (Max) were estimated.

[5] = test system: thyroglobulin (tg:mCherry reporter gene); design: method as in PMID 25962731; settings: manual positioning and image analysis; cited from earlier work
in vivo = settings: zebrafish, in vivo, LC50 (48–120 hpf), mortality, embryos exposed 48–120 hpf
Experimental: (§1) Fish embryo acute toxicity tests were performed similar as described previously, using 10 or 25 embryos per concentration and replicate exposed in crystallization dishes from 48 to 120 hpf. No exchange of exposure media was performed. Lethality was identified by coagulation, missing heartbeat, a non–detached tail and/or missing of somites. Raw data for mortality and phenotypic assessment are provided as S1 Table. Concentration-response curves for mortality are shown in S2 Fig.

zebrafish embryos [6] = assay: in vivo
Experimental: as §1

[7] = 72 hpf, 987.65 µmol/L, replicate 2, 10 embryos
[8] = 72 hpf, 1481.48 µmol/L, replicate 2, 10 embryos
[9] = 72 hpf, 2222.22 µmol/L, replicate 2, 10 embryos
[10] = 72 hpf, 3333.33 µmol/L, replicate 2, 10 embryos
[11] = 72 hpf, 5000.00 µmol/L, replicate 2, 10 embryos
[12] = 96 hpf, 987.65 µmol/L, replicate 2, 10 embryos
[13] = 96 hpf, 1481.48 µmol/L, replicate 2, 10 embryos
[14] = 96 hpf, 2222.22 µmol/L, replicate 2, 10 embryos
[15] = 96 hpf, 3333.33 µmol/L, replicate 2, 10 embryos
[16] = 96 hpf, 5000.00 µmol/L, replicate 2, 10 embryos
[17] = 120 hpf, 937.50 µmol/L, replicate 1, 25 embryos
[18] = 120 hpf, 987.65 µmol/L, replicate 2, 10 embryos
[19] = 120 hpf, 1481.48 µmol/L, replicate 2, 10 embryos
[20] = 120 hpf, 1875.00 µmol/L, replicate 1, 25 embryos
[21] = 120 hpf, 2222.22 µmol/L, replicate 2, 10 embryos
[22] = 120 hpf, 3333.33 µmol/L, replicate 2, 10 embryos
[23] = 120 hpf, 3750.00 µmol/L, replicate 1, 25 embryos
[24] = 120 hpf, 5000.00 µmol/L, replicate 2, 10 embryos
[25] = 120 hpf, 7500.00 µmol/L, replicate 1, 25 embryos
[26] = 120 hpf, 15000.00 µmol/L, replicate 1, 25 embryos

## Cn1cc[nH]c1=S [Methimazole, methimazole]
[1]
  Log D (pH 7.4): -0.11
Zebrafish embryos [2]
  LC50: 28800 µM
[3]; ref Thienpont et al. [13]
  EC50: 290 µM
[3]; zebrafish, in vivo
  TDI (T4): 75
[4]
  EC50: 279 µM
[4]; zebrafish, in vivo
  BMD 20: 186 µM
  Slope: 3.3
  TDI: 103
[5]
  EC50: 551 µM

## Oc1cccc(O)c1 [Resorcinol, resorcinol]
In vivo
  LC50: 5200 µM
Zebrafish embryos [6]; [7]
  No Surviving: 10
  No hatched: 9
Zebrafish embryos [6]; [8]
  No Surviving: 10
  No hatched: 10
Zebrafish embryos [6]; [9]
  No Surviving: 10
  No hatched: 9
Zebrafish embryos [6]; [10]
  No Surviving: 10
  No hatched: 10
  Total Sublethal: 6
  Ydef (yolk deformation): 6
Zebrafish embryos [6]; [11]
  No Surviving: 10
  No hatched: 10
  Total Sublethal: 8
  Ydef (yolk deformation): 8
Zebrafish embryos [6]; [12]
  No Surviving: 10
  No hatched: 10
Zebrafish embryos [6]; [13]
  No Surviving: 10
  No hatched: 10
  Total Sublethal: 1
  Ydef (yolk deformation): 1
Zebrafish embryos [6]; [14]
  No Surviving: 10
  No hatched: 10
  Total Sublethal: 2
  Ydef (yolk deformation): 2
Zebrafish embryos [6]; [15]
  No Surviving: 10
  No hatched: 10
  Total Sublethal: 5
  Ydef (yolk deformation): 2
  mch (malformation of chorda/scoliosis): 5
Zebrafish embryos [6]; [16]
  No Surviving: 10
  No hatched: 10
  Total Sublethal: 10
  Ydef (yolk deformation): 7
  nobc (no blood circulation): 2
  nomov (no spontaneous movement): 10
Zebrafish embryos [6]; [17]
  No Surviving: 25
  k/f (coagulated): 0
Zebrafish embryos [6]; [18]
  No Surviving: 10
  No hatched: 10
Zebrafish embryos [6]; [19]
  EdY / EdP (heart or yolk sac edema): 1
  No Surviving: 10
  No hatched: 10
  Total Sublethal: 1
  Ydef (yolk deformation): 1
Zebrafish embryos [6]; [20]
  No Surviving: 25
  k/f (coagulated): 0
  nomov (no spontaneous movement): 25
Zebrafish embryos [6]; [21]
  EdY / EdP (heart or yolk sac edema): 1
  No Surviving: 10
  No hatched: 10
  Total Sublethal: 2
  Ydef (yolk deformation): 2
Zebrafish embryos [6]; [22]
  No Surviving: 10
  No hatched: 10
  Total Sublethal: 5
  Ydef (yolk deformation): 5
  mch (malformation of chorda/scoliosis): 4
Zebrafish embryos [6]; [23]
  EdY / EdP (heart or yolk sac edema): 25
  No Surviving: 25
  Total Sublethal: 25
  k/f (coagulated): 0
Zebrafish embryos [6]; [24]
  EdY / EdP (heart or yolk sac edema): 8
  No Surviving: 7
  No hatched: 10
  Total Sublethal: 7
  Ydef (yolk deformation): 8
  mch (malformation of chorda/scoliosis): 3
  nobc (no blood circulation): 10
  nohb (no heartbeat): 3
  nomov (no spontaneous movement): 10
Zebrafish embryos [6]; [25]
  No Surviving: 0
  k/f (coagulated): 25
Zebrafish embryos [6]; [26]
  No Surviving: 0
  k/f (coagulated): 25
Zebrafish embryos [6]; mortality after 72 h of exposure, S2 Fig, unit not given, in µM
  LC10: 4701
Zebrafish embryos [6]; mortality concentration-response curve, 72 h of exposure
  Slope: 21.9
[1]
  Log D (pH 7.4): 0.86
[3]; ref Thienpont et al. [13]
  EC50: 82 µM
[3]; thyroid disruption index based on T4 reduction, ref Thienpont et al. [13]
  TDI (T4): 62
[4]
  EC50: 3.4 µM
[4]; zebrafish, in vivo
  BMD 20: 0.663 µM
  Slope: 0.78
  TDI: 1529
  effect on tg:mCherry fluorescence: weaker induction or repression of fluorescence
